Holding throughout (type): cell-based, human
One experiment relates to F-actin. The experiment is described as follows: F-actin staining and G/F actin ratio by western blot. The conditions noted are these: 1 μM for 24 hours, plated stage 4 cells. The protocol: (§1) Brightfield images were taken with a Leica DMi1 inverted light microscope, and fluorescence images were captured with a Nikon A1Rsi confocal microscope. For immunostaining, cells were fixed with 4% paraformaldehyde (PFA) at room temperature for 30 minutes. They were then blocked and permeabilized for 45 minutes at room temperature with an immunocytochemistry (ICC) solution consisting of 0.1% triton X (Acros Organics, 327371000) and 5% donkey serum (Jackson Immunoresearch, 017000-121) in PBS (Corning, 21-040-CV). Samples were then incubated with primary antibodies diluted in ICC solution overnight at 4° C., washed with ICC, incubated with secondary antibodies diluted in ICC for 2 hours at room temperature, and stained with DAPI for 15 minutes at room temperature. For histological sectioning, whole SC-β cell clusters generated with the planar protocol and mouse kidneys containing transplanted cells were fixed overnight with 4% PFA at 4° C. The in vitro clusters were also embedded in Histogel (Thermo Scientific, hg-4000-012). These samples were then paraffin-embedded and sectioned by the Division of Comparative Medicine (DCM) Research Animal Diagnostic Laboratory Core at Washington University in St. Louis. Paraffin was removed from sectioned samples with Histoclear (Thermo Scientific, C78-2-G), and antigen retrieval was carried out in a pressure cooker (Proteogenix, 2100 Retriever) with 0.05 M EDTA (Ambion, AM9261). Slides were blocked and permeabilized with ICC solution for 45 minutes, incubated with primary antibodies in ICC solution overnight at 4° C., and incubated with secondary antibodies for 2 hours at room temperature. Slides were then sealed with DAPI Fluoromount-G (SouthernBiotech, 0100-20).
G/F actin ratio was determined by western blot following the instructions of the G-actin/F-actin In Vivo Assay Kit (Cytoskeleton, Inc, BK037). Western blot was visualized using SuperSignal West Pico PLUS Chemiluminescent substrate (ThermoScientific, 34577) and the Odyssey FC (LI-COR) imager.

For experiment [1], the system named is plated cells of the SC-β cell protocol. Kind of experiment: Bulk RNA sequencing at stage 6 of plated cells treated with latrunculin A. The protocol: Cells generated with the suspension protocol were single-cell dispersed from clusters with TrypLE at the end of stage 3 and seeded onto collagen 1 coated 24-well plates at 0.625×10^6 cells/cm^2. Either 0.5 μM latrunculin A was added throughout the entirety of stage 4 or 1 μM latrunculin A was added for the first 24 hours of stage 5. After two weeks in stage 6, RNA was extracted with the RNeasy Mini Kit (Qiagen, 74016), including a DNase treatment (Qiagen, 79254) during extraction. Samples were delivered to Washington University in St. Louis Genome Technology Access Center for library preparation and sequencing. Samples were prepared by RNA depletion using Ribo-Zero according to library kit manufacturer's protocol, indexed, pooled, and sequenced on an Illumine HiSeq.
Differential gene expression analysis was performed using EdgeR. DGEList was used to create the count object and normalized the data using the trimmed mean M-values (TMM) method with calcNormFactors. Pairwise comparisons were performed using exactTest and used topTags to obtain differentially expressed genes and their respective log fold change (log FC) and adjusted p-value (FDR). These values were used to generate volcano plots using ggplot2. Hierarchical clustering and heatmaps were performed and generated with heatmap.2 (gplots) using log CPM calculated expression levels. […]

The test system of another experiment is plated stage 4 cells. The experiment is described as follows: qRT-PCR and immunostaining of plated stage 4 cells treated with cytoskeletal modifying compounds.
Excerpt: For experiments investigating the effects of plating pancreatic progenitors, cells were differentiated with the suspension protocol for stages 1-3. At the end of stage 3, clusters were single cell dispersed with TrypLE and plated onto tissue culture plates coated with various ECM proteins at 0.625×10^6 cells/cm^2. Differentiation media for the remainder of this hybrid protocol were the same as for the suspension protocol with the exception that Y-27632 and Activin A were omitted on days 2-5 of stage 4. Additional compounds were added as indicated in each experiment: 1 μM latrunculin A (Cayman Chemical, 10010630), 1 μM latrunculin B (Cayman Chemical, 10010631), 1 μM cytochalasin D (MilliporeSigma, C2618), 1 μM jasplakinolide (Cayman Chemical, 11705), 10 μM blebbistatin (MilliporeSigma, 203389), 1 μM nocodazole (Cayman Chemical, 13857), 1 μM Y-15 (Cayman Chemical, 14485), 10 μM Y-27632, and 10 μM GDC-0994 (Selleckchem, S7554). A variety of ECM coatings were initially tested with this plating methodology, including collagen I (Corning, 354249), collagen IV (Corning, 354245), fibronectin (Gibco, 33016-015), vitronectin (Gibco, A14700), matrigel (Corning, 356230), gelatin (Fisher, G7-500), and laminins 111, 121, 211, 221, 411, 421, 511, and 521 (Biolamina, LNKT-0201). All subsequent experiments with this hybrid protocol were performed on collagen I.
as §1
RNA was extracted from either whole clusters or cells directly on the plate with the RNeasy Mini Kit (Qiagen, 74016). Samples were treated with a DNAse kit (Qiagen, 79254) during extraction. The High Capacity cDNA Reverse Transcriptase Kit (Applied Biosystems, 4368814) was used to synthesize cDNA on a thermocycler (Applied Biosystems, A37028). The PowerUp SYBR Green Master Mix (Applied Biosystems, A25741) was used on a StepOnePlus (Applied Biosystems), and real time PCR results were analyzed using a ΔΔCt methodology. TBP and GUSB were both used as housekeeping genes. Primer sequences were as follows.

Regarding `C/C1=C/C(=O)O[C@@H]2C[C@@H](CC[C@H](C)/C=C\C=C\CC1)O[C@@](O)([C@@H]1CSC(=O)N1)C2` [latrunculin A], in the experiment on F-actin, the F-actin polymerization state result is given as “almost complete depolymerization of F-actin”, the G/F-actin ratio entry is on record as “increased G/F-actin ratio” and the “PDX1 expression by immunostaining” value is recorded as “maintenance of PDX1 expression”. Moreover, in experiment [1] (0.5 μM throughout stage 4), the “gene expression profile at stage 6” value was “increasing intestine and stomach gene expression”. In addition, in experiment [1] (1 μM for the first 24 hours of stage 5), the “gene expression profile at stage 6” value was “increasing expression of β cell and islet genes”. The “NEUROG3+ and NKX6-1+ cells by immunostaining” value with plated stage 4 cells (1 μM, plated cells at the end of stage 4) is “increases NEUROG3+ and decreases NKX6-1+ cells”. Also, in the experiment with plated stage 4 cells (added during stage 4, qRT-PCR), the “dose response of NEUROG3 expression” value was “highly dose-dependent”. For the same compound, in the experiment with plated stage 4 cells (compound screen, plated stage 4 cells, qRT-PCR), the “expression of NEUROG3 and downstream targets NKX2.2 and NEUROD1” value is “greatly increased expression of NEUROG3”. In addition, the NKX6-1 expression result with plated stage 4 cells (latrunculin treatment during stage 4) is “followed the reverse trend as NEUROG3”.

The values above are taken from patent US20210207099A1, “METHODS AND COMPOSITIONS FOR GENERATING CELLS OF ENDODERMAL LINEAGE AND BETA CELLS AND USES THEREOF” (priority 2018, published 2021).
